Experimental data reported in patent US20240166641A1, “HETEROCYCLES AND USES THEREOF” (Kumquat Biosciences Inc., priority 2021, published 2024).

Legend:
[1] = molecular target: T1, PTP1B (Homo sapiens, UniProt P18031); experiment: Phosphatase activity assay (Bio-Biochem-DiFMUP), PTP1B; format: biochemical; conditions: DiFMUP substrate, room temperature
T1 sequence (P18031 1-435): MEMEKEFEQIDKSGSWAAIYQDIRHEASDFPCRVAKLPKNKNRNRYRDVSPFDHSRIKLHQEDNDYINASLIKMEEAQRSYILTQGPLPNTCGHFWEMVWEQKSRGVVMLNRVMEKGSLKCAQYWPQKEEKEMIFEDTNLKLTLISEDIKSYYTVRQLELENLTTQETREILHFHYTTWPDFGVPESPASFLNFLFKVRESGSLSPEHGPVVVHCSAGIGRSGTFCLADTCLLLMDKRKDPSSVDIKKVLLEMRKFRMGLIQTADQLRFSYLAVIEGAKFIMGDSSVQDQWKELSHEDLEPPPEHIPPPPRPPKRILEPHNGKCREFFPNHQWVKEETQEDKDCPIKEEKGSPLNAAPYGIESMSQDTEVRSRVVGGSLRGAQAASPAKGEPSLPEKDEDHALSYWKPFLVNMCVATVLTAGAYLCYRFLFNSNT
From the text: (§1) The selectivity and potency of a small molecule PTPN2 inhibitor as provided herein (e.g., a derivative of Formula I, II, III, IV; or sub-formulae thereof) against one or more protein tyrosine phosphatase (PTP) enzymes, and specifically against PTPN2, can be assessed in various ways. The one or more PTP enzymes comprise Mycobacterium protein tyrosine phosphatase A (mPTPA), Mycobacterium protein tyrosine phosphatase B (mPTPB), PTPN1 (i.e., PTP1B), PTPN2 (i.e., TC-PTP), SHP-1, SHP-2, FAP-1, Meg2, HePTP, Laforin, VHX, VHR, LMWPTP, Cdcl4A, LAR, CD45, PTPRG, a fragment thereof, a variant thereof, and a combination thereof. Selectivity and potency of a small molecule PTPN2 inhibitor is evaluated using a PTP activity inhibition assay. The assay is performed using a buffer comprising 50 millimolar (mM) Bis-Tris (pH=6.3), 2 mM EDTA, and 5 mM N,N′-dimethyl-N,N′-bis(mercaptoacetyl)hydrazine (DMH). The assay is performed using a phosphated substrate, e.g., 10 mM fluorescein diphosphate (FDP) that is stored at −20° C. Alternatively or in addition to, the assay is performed using 10 mM DiFMUP as a phosphated substrate. Each PTP enzyme is diluted in an enzyme dilution buffer comprising 50 mM Bis-Tris (pH=6.3), 2 mM EDTA, 5 mM DMH, 20% (vol./vol.) glycerol, and 0.01% (vol./vol.) Triton X-100.
(§2) The assay is carried out at room temperature in 96 well plates. A reaction mixture of 170 microliter (μL) of the assay buffer comprising 10 μM FDP or DiFMIUP is added to each well. A 10 μL volume of (i) a compound disclosed herein (e.g., PTPN2 inhibitor) dissolved in DMSO at one of 10 concentrations from a serial dilution or (ii) DMSO alone for control is added to each well. The reaction is initiated by adding 20 μL of a PTP enzyme (e.g., PTPN2) that is diluted in the enzyme dilution buffer. The phosphatase activity of the PTP enzyme is assessed by monitoring appearance of a fluorescent product (e.g., fluorescein monophosphate (FMP) from FDP, or 6,8-difluoro-7-hydroxyl-4-coumarin (DiFMU) from DiFMUP) continuously for about 15 to 30 minutes, using the SpectraMax® Gemini™ XPS Microplate Spectrofluorometer (Molecular Devices®) with excitation of 440 nm and emission at 530 nm (cutoff filter at 525 nm) for FMP and excitation at 360 nm and emission at 450 nm (cutoff filter at 435 nm) for DiFMU. The rate (e.g., the initial rate) of FMP or DiFMU formation is plotted against the concentration of the small molecule PTPN2 inhibitor, and the data is fitted (e.g., using a 4-parameter equation) to determine the inflection point of the fit as the IC50 of the small molecule PTPN2 inhibitor for a specific enzyme. Table 6 summarizes the IC50 values of compounds disclosed herein against PTPN2 and PTPN1.

[2] = molecular target: T2, PTPN2 (Homo sapiens, UniProt P17706); experiment: Phosphatase activity assay (Bio-Biochem-DiFMUP), PTPN2; format: biochemical; conditions: DiFMUP substrate, room temperature
T2 sequence (P17706 1-415): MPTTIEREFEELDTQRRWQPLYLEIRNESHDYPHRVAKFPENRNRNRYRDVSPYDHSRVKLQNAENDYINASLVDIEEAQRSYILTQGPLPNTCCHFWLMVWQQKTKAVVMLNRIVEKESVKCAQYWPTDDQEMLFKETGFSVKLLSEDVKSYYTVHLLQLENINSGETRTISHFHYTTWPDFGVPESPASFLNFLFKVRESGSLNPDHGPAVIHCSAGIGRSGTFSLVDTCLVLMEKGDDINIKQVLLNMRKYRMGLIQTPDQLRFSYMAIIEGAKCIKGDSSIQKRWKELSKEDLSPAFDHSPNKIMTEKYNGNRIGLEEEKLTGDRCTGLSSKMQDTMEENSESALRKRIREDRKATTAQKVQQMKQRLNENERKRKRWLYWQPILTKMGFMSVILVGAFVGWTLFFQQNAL
From the text: as §1, §2

SMILES | IC50 [1] | IC50 [2]
Cn1c(=O)c(NCCOC2CCCC2)cc2cc(N3CC(=O)NS3(=O)=O)c(O)cc21 [Compound 140] | ≤ 1000 nM | 1000 to 10000 nM
CC(C)CCN(C)c1ccc2cc(O)c(N3CC(=O)NS3(=O)=O)cc2n1 [Compound 121] | 1000 to 10000 nM | 1000 to 10000 nM
CC(C)OCCNc1ccc2cc(O)c(N3CC(=O)NS3(=O)=O)cc2n1 [Compound 138] | ≤ 1000 nM | ≤ 1000 nM
CC(C)CCCN1CCc2cc(O)c(N3CC(=O)NS3(=O)=O)cc2C1=O [Compound 105] | > 10000 nM | 1000 to 10000 nM
Cn1c(=O)c(N2CCCC2)cc2cc(N3CC(=O)NS3(=O)=O)c(O)cc21 [Compound 134] | ≤ 1000 nM | 1000 to 10000 nM
O=C1CN(c2cc3nc(NCCc4ccccn4)ccc3cc2O)S(=O)(=O)N1 [Compound 126] | ≤ 1000 nM | ≤ 1000 nM
CC(C)CCNc1ccc2cc(O)c(N3C(C)C(=O)NS3(=O)=O)cc2n1 (centres unmarked) [Compound 137, 5-(6-hydroxy-2-(isopentylamino)quinolin-7-yl)-4-methyl-1,2,5-thiadiazolidin-3-one 1,1-dioxide] | ≤ 1000 nM | ≤ 1000 nM
CC(C)CCN1Cc2cc(N3CC(=O)NS3(=O)=O)c(O)cc2CC1=O [Compound 119, 5-(6-hydroxy-2-isopentyl-3-oxo-1,2,3,4-tetrahydroisoquinolin-7-yl)-1,2,5-thiadiazolidin-3-one 1,1-dioxide] | ≤ 1000 nM | ≤ 1000 nM
CC(C)CCN1Cc2cc(C3CC(=O)NS3(=O)=O)c(O)cc2N(C)C1=O (centres unmarked) [Compound 111, 5-(7-hydroxy-3-isopentyl-1-methyl-2-oxo-1,2,3,4-tetrahydroquinazolin-6-yl)isothiazolidin-3-one 1,1-dioxide] | > 10000 nM | > 10000 nM
CC(C)CCN1Cc2cc(C3CC(=O)NS3(=O)=O)c(O)cc2CC1=O (centres unmarked) [Compound 112] | > 10000 nM | > 10000 nM
O=C1CN(c2c(O)cc3ccc(NCCc4ccccc4)nc3c2F)S(=O)(=O)N1 [Compound 125] | ≤ 1000 nM | ≤ 1000 nM

Now from value to compound:

IC50 [1] | IC50 [2] | SMILES
> 10000 nM | > 10000 nM | CC(C)CCNc1ccc2cc(O)c(N3CC(=O)NS3(=O)=O)cc2n1 [Compound 187]
≤ 1000 nM | ≤ 1000 nM | Cn1c(=O)c(NCc2ccccc2)cc2cc(N3CC(=O)NS3(=O)=O)c(O)cc21 [Compound 177]
1000 to 10000 nM | 1000 to 10000 nM | CN(C)C1CN(c2cc3cc(N4CC(=O)NS4(=O)=O)c(O)cc3n(C)c2=O)C1 [Compound 172]
≤ 1000 nM | ≤ 1000 nM | CC(C)CCCc1cc2cc(N3CC(=O)NS3(=O)=O)c(O)cc2n(C)c1=O [Compound 152]
> 10000 nM | > 10000 nM | CC(C)CCn1cnc2cc(O)c(N3CC(=O)NS3(=O)=O)cc2c1=O [Compound 196]
≤ 1000 nM | ≤ 1000 nM | Cn1c(=O)c(NCCC2CCCCC2)cc2cc(N3CC(=O)NS3(=O)=O)c(O)cc21 [Compound 141]
≤ 1000 nM | ≤ 1000 nM | CC(C)CCNc1cc2cc(N3CC(=O)NS3(=O)=O)c(O)cc2n(C2CC2)c1=O [Compound 145]
≤ 1000 nM | ≤ 1000 nM | Cn1c(=O)c(NCC(C)(F)F)cc2cc(N3CC(=O)NS3(=O)=O)c(O)cc21 [Compound 173]
≤ 1000 nM | ≤ 1000 nM | Cn1c(=O)c(NCCCC#N)cc2cc(N3CC(=O)NS3(=O)=O)c(O)cc21 [Compound 148]
> 10000 nM | > 10000 nM | Cn1c(=O)c(C#N)cc2cc(N3CC(=O)NS3(=O)=O)c(O)cc21 [Compound 161]
≤ 1000 nM | ≤ 1000 nM | O=C1CN(c2cc3nc(OCCc4ccc(F)cc4)ccc3cc2O)S(=O)(=O)N1 [Compound 189]
≤ 1000 nM | 1000 to 10000 nM | C[C@H](Nc1cc2cc(N3CC(=O)NS3(=O)=O)c(O)cc2n(C)c1=O)c1ccccc1 [Compound 194]
> 10000 nM | > 10000 nM | O=C1CN(c2cc3nc(OCCN4CCC4)ccc3cc2O)S(=O)(=O)N1 [Compound 163]
≤ 1000 nM | 1000 to 10000 nM | Cn1c(=O)c(O)cc2c(F)c(N3CC(=O)NS3(=O)=O)c(O)cc21 [Compound 184]
